In one experiment the test system is UM-UC-9 engineered cells. As to the kind of experiment: Cell proliferation / short-term viability assay, CellTiter-Glo 144 h. Particulars: read-out: CTGlo 144 h UMUC9.5, G150. It is filed as cell-based, human. The method, boiled down: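 Viability read by CellTiter-Glo 2.0 luminescence at day 7 versus DMSO-vehicle wells and a T0 plate measured on day 0. Cells: UM-UC-9 engineered assay-ready stocks, 500 cells/well in high-glucose DMEM with 10% FBS, 37° C, 5% CO2.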
Background: ATP-based viability assays read luminescence as a measure of living cells.

Another experiment addresses T1, His6-TEV-PPARγ-(234-505) (Homo sapiens, UniProt P37231).
T1 construct: The His6-TEV-PPARγ-(234-505) protein for assay was expressed and purified; TEV cleavage site (N); made in house
T1 sequence (P37231 234-505): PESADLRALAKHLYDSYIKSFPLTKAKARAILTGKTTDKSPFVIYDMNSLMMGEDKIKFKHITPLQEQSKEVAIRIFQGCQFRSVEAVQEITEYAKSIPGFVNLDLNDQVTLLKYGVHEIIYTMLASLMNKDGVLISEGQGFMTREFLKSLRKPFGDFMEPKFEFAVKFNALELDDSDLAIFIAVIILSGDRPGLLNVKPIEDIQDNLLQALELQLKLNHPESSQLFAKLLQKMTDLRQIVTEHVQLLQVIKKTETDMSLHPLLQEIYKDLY
The experiment in a line: TR-FRET Assay to Measure Co-R Peptide Recruitment to PPARγ. It is filed as biochemical. Particulars: Co-R peptide (SMRT-ID2) recruitment; top final concentration 20 μM; read-out: TR-FRET i-Ag; AC50. The method, boiled down:
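Corepressor recruitment is measured by adding terbium-labeled anti-His antibody and FITC SMRT-ID2 peptide, at 5 and 200 nM final, after a 20-minute room-temperature protein–compound incubation. After one further hour, signal is converted to percent response between DMSO and 500 nM T0070907 wells.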

Where two headings read alike, the source gives them in different places. Some results are limits rather than exact numbers.

Regarding `COc1cc(-c2cc(C(=O)N3CC[C@H](C(=O)NCc4c(C(F)(F)F)nn(C)c4Cl)CC34CC4)[nH]n2)c(F)cn1` [Example 526, (S)—N-((5-chloro-1-methyl-3-(trifluoromethyl)-1H-pyrazol-4-yl)methyl)-4-(3-(5-fluoro-2-methoxypyridin-4-yl)-1H-pyrazole-5-carbonyl)-4-azaspiro[2.5]octane-7-carboxamide], the IC50 with UM-UC-9 engineered cells (Homo sapiens, UM-UC-9, 144 h) was found to be 7.1 nM. Besides, the AC50 on His6-TEV-PPARγ-(234-505) was determined as 3.7 nM.
For `COc1cc(-c2cc(C(=O)N3CC[C@H](C(=O)NCc4ncc(C#N)cc4Cl)CC34CC4)n[nH]2)c(F)cn1` [Example 391, (S)—N-((3-chloro-5-cyanopyridin-2-yl)methyl)-4-(5-(5-fluoro-2-methoxypyridin-4-yl)-1H-pyrazole-3-carbonyl)-4-azaspiro[2.5]octane-7-carboxamide], in the experiment on UM-UC-9 engineered cells (Homo sapiens, UM-UC-9, 144 h), the IC50 was determined as 81.3 nM. Moreover, at His6-TEV-PPARγ-(234-505), the AC50 stood at 19.5 nM.
Consider `COc1cc(-c2cc(C(=O)N3CC[C@H](C(=O)NCc4ncc(N5CC6CC5CN6)cn4)CC34CC4)n[nH]2)c(F)cn1` (single isomer, unassigned) [Example 467-B], for which the IC50 with UM-UC-9 engineered cells was above 10000 nM. Moreover, the AC50 on His6-TEV-PPARγ-(234-505) was 644 nM.
As to `O=C(NC1CCC(O)(C(F)(F)F)CC1)C1CCN(C(=O)c2cc(-c3cc(Cl)ncc3F)[nH]n2)C2(CC2)C1` (single isomer, unassigned) [Example 529-A], in the experiment with UM-UC-9 engineered cells, the IC50 is 5560 nM. Moreover, the AC50 at His6-TEV-PPARγ-(234-505) was 756 nM.
Take `COc1cc(-c2nc(C(=O)N3CCC(C(=O)NCc4cccc(Cl)c4)CC3)n[nH]2)c(F)cn1` [Example 166, N-[(3-chlorophenyl)methyl]-1-[5-(5-fluoro-2-methoxypyridin-4-yl)-1H-1,2,4-triazole-3-carbonyl]piperidine-4-carboxamide]: the IC50 in the experiment with UM-UC-9 engineered cells (Homo sapiens, UM-UC-9, 144 h) is above 10000 nM. The AC50 on His6-TEV-PPARγ-(234-505) stood at 300 nM.
Take `COc1cc(-c2cc(C(=O)N3CCC(C(=O)NC4CCC(C)CC4)CC3)n[nH]2)c(F)cn1` (mixture of isomers) [Example 114, 1-(5-(5-fluoro-2-methoxypyridin-4-yl)-1H-pyrazole-3-carbonyl)-N-((1s,4s)-4-methylcyclohexyl)piperidine-4-carboxamide and 1-(5-(5-fluoro-2-methoxypyridin-4-yl)-1H-pyrazole-3-carbonyl)-N-((1r,4r)-4-methylcyclohexyl)piperidine-4-carboxamide]: the IC50 in the experiment with UM-UC-9 engineered cells came out at 120 nM. In addition, at His6-TEV-PPARγ-(234-505), the AC50 turned out to be 78.5 nM.
With `COc1cc(-c2cc(C(=O)N3CCC(C(=O)NC4CCN(c5cnnc(C)c5)C4)CC34CC4)n[nH]2)c(F)cn1` (mixture of isomers) [Example 452, (S)-4-(5-(5-fluoro-2-methoxypyridin-4-yl)-1H-pyrazole-3-carbonyl)-N—((S)-1-(6-methylpyridazin-4-yl)pyrrolidin-3-yl)-4-azaspiro[2.5]octane-7-carboxamide and ('S)-4-(5-(5-fluoro-2-methoxypyridin-4-yl)-1H-pyrazole-3-carbonyl)-N—((R)-1-(6-methylpyridazin-4-yl)pyrrolidin-3-yl)-4-azaspiro[2.5]octane-7-carboxamide], the IC50 in the experiment with UM-UC-9 engineered cells was found to be 2390 nM. In addition, on His6-TEV-PPARγ-(234-505), the AC50 was 33.4 nM.
Consider `COc1cc(-c2cc(C(=O)N3CCC(C(=O)NC4CCC(OCC(C)OC)(C(F)(F)F)CC4)CC34CC4)n[nH]2)c(F)cn1` (single isomer, unassigned) [Example 340-A], for which the IC50 with UM-UC-9 engineered cells was found to be 4.4 nM. Moreover, the AC50 at His6-TEV-PPARγ-(234-505) is 6.5 nM.
With `COc1cc(-c2cc(C(=O)N3CCC(C(=O)NCc4ccc(C(F)(F)F)cn4)CC3)n[nH]2)c(Cl)cn1` [Example 139, 1-(5-(5-chloro-2-methoxypyridin-4-yl)-1H-pyrazole-3-carbonyl)-N-((5-(trifluoromethyl)pyridin-2-yl)methyl)piperidine-4-carboxamide], the IC50 in the experiment on UM-UC-9 engineered cells (Homo sapiens, UM-UC-9, 144 h) amounted to 1790 nM. Moreover, the AC50 on His6-TEV-PPARγ-(234-505) stood at 336 nM.
For `COc1cc(-c2cc(C(=O)N3CCC(C(=O)NCc4c(F)ccc(F)c4F)CC3)n[nH]2)c(Cl)cn1` [Example 123, 1-(5-(5-chloro-2-methoxypyridin-4-yl)-1H-pyrazole-3-carbonyl)-N-(2,3,6-trifluorobenzyl)piperidine-4-carboxamide], the IC50 in the experiment on UM-UC-9 engineered cells (Homo sapiens, UM-UC-9, 144 h) stood at 100 nM. Moreover, at His6-TEV-PPARγ-(234-505), the AC50 amounted to 12.8 nM.

These data come from US12606541B2, “PPARg modulators and methods of use” (Eisai R&D Management Co., Ltd., priority 2020, dated 2026).
